Data from EP4740933A1, “CLEANING COMPOSITION AND USE THEREOF” (Suzhou Oulit Biopharm Co., Ltd., priority 2023, dated 2025).
Where “and” joins values, the source holds several entries; their conditions need not be identical. Equal entries are not always repeated. Where two headings read alike, the source gives them in different places.

Tests used:
[1] = Foaming test, modified Ross-Miles method (GB/T7462-1994); assay type: physicochemical; conditions: 2.5 g/L, 50 ± 0.5 °C
Procedure: Conditions: test solution concentration: 2.5 g/L; test temperature: 50 ± 0.5 °C; test water: soft water/hard water.

[2] = system: Reconstructed Human Epidermis; assay: In vitro skin irritation: reconstructed human epidermis test (OECD TG 439); assay type: cell-based; parameters: Viability Mean: concentration or dose not given beside the values
[3] = system: Bovine Corneal; assay: Eye irritation: Bovine Corneal Opacity and Permeability Test (OECD TG 437); conditions: positive control, no test concentration printed (/)
Excerpt: Basis: Bovine Corneal Opacity and Permeability Test, OECD TG 437 (2020).

Compound | Foam volume at 30 s ([1]; soft water) [mL] | Foam volume at 3 min ([1]; soft water) [mL] | Foam volume at 5 min ([1]; soft water) [mL] | IL-1α content [2] [pg/mL] | Viability Mean [2] [%] | also measured
sodium cocoyl alaninate [ACS30] | 330 | 200 | 140 | – | – | –
potassium cocoyl glycinate [GCK30] | 430 | 390 | 360 | – | – | –
sodium cocoyl glycinate [GC30] | 460 | 430 | 400 | – | – | –
sodium cocoylmethyl taurate [CMT-35] | 310 | 260 | 230 | – | – | –
CCCCCCCCCCCCOS(=O)(=O)[O-].[Na+] [Positive control (PC)] | – | – | – | 89.45 ± 10.06 | 4.03 | –
CCCCCCCCCCCCOS(=O)(=O)[O-].[Na+] [Sodium dodecyl sulfate (K12), Sodium dodecyl sulfate] | – | – | – | 96.26 ± 3.21 | – | Viability Mean ([2]; human): 40.79%
CCCCCCCCCCCC(=O)N[C@@H](C)C(=O)O [Lauroyl alanine (LA), Lauroyl alanine] | – | – | – | 2.07 ± 0.59 | 95.52 | –
CCCCCCCCCCCC(=O)N[C@@H](C)C(=O)O.N=C(N)NCCC[C@H](N)C(=O)O [LA-Arg] | – | – | – | 3.5 ± 0.38 | 97.40 | –
Lauroyl alanine-arginine | 380 | 340 | 335 | – | – | Foam volume at 30 s ([1]; hard water): 570 mL and 580 mL; Foam volume at 3 min ([1]; hard water): 540 mL and 560 mL and 565 mL; Foam volume at 5 min ([1]; hard water): 530 mL and 545 mL and 550 mL
CCO [Positive control (absolute ethanol), absolute ethanol] | – | – | – | – | – | In vitro irritancy score (IVIS) [3]: 32.3545
CCCCCCCCCCCC(=O)NC(C)C(=O)[O-].[Na+] (stereo not shown) [LA-NaOH] | – | – | – | 3.88 ± 5.28 | 86.99 | –
Sodium laureth sulfate [Sodium laureth sulfate (AES)] | 310 | 250 | 210 | 20.59 ± 5.27 | 57.12 | –
